Patent US20080269267A1, “KINASE INHIBITORS USEFUL FOR THE TREATMENT OF MYLEOPROLIFIC DISEASES AND OTHER PROLIFERATIVE DISEASES” (Deciphera Pharmaceuticals, LLC, priority 2007, published 2008)
Substitutions are numbered along the chain they refer to. Structures can show the parent of a compound that is named as a salt.

Columns and labels:
[1] = target: T1, T315I Abl kinase (SEQ ID NO:2) (Homo sapiens, UniProt P00519, T315I); assay: T315I Abl kinase assay (pyruvate kinase/lactate dehydrogenase coupled); details: 1 h preincubation at 30° C., ATP 500 μM; read-out: Abl T315l Enzyme Assay, biochemical IC50
T1 construct: purchased deCode Genetics
T1 sequence (P00519 with tags, fused parts or gaps T315I): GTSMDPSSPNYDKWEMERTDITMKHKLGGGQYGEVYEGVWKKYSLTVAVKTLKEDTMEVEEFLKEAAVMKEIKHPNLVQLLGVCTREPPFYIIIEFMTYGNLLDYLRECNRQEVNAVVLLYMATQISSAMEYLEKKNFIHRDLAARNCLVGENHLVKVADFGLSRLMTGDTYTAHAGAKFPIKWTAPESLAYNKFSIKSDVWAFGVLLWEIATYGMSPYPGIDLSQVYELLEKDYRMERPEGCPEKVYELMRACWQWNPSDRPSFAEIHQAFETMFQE
Experimental: Abl Kinase (SEQ ID NO:2) Assay
Activity of T315I Abl kinase (SEQ ID NO:2) was determined by following the production of ADP from the kinase reaction through coupling with the pyruvate kinase/lactate dehydrogenase system (e.g., Schindler, et al. Science (2000) 289, 1938-1942). In this assay, the oxidation of NADH (thus the decrease at A340nm) was continuously monitored spectrophometrically. The reaction mixture (100 μl) contained Abl kinase (4.4 nM. […] Abl from deCode Genetics), peptide substrate (EAIYAAPFAKKK, 0.2 mM), MgCl2 (10 mM), pyruvate kinase (4 units), lactate dehydrogenase (0.7 units), phosphoenol pyruvate (1 mM), and NADH (0.28 mM) in 90 mM Tris buffer containing 0.2% octyl-glucoside and 1% DMSO, pH 7.5. Test compounds were incubated with T315I Abl (SEQ ID NO:2) and other reaction reagents at 30° C. for 1 h before ATP (500 μM) was added to start the reaction. The absorption at 340 nm was monitored continuously for 2 hours at 30° C. on Polarstar Optima plate reader (BMG). The reaction rate was calculated using the 1.0 to 2.0 h time frame. Percent inhibition was obtained by comparison of reaction rate with that of a control (i.e. with no test compound). IC50 values were calculated from a series of percent inhibition values determined at a range of inhibitor concentrations using software routines as implemented in the GraphPad Prism software package.

[2] = target: T2, BaF3 cells transfected with wild type p210 BCR-Abl (Homo sapiens, UniProt P00519); assay: Ba/F3 p210 whole cell proliferation assay (Cell Titer Blue, 72 hours); format: cell-based; details: 72 hours incubation; read-out: Ba/F3 p210 whole cell proliferation assay, antiproliferation IC50
T2 construct: fused on or other part: P11274 (Breakpoint cluster region protein)
Experimental: (§1) BaF3 cells (parental or transfected with the following: wild type p210 BCR-Abl and T315I p210 BCR-Abl was obtained from Professor Richard Van Etten (New England Medical Center, Boston, Mass.). Briefly, cells were grown in RPMI 1640 supplemented with 10% characterized fetal bovine serum (HyClone, Logan, Utah) at 37 degrees Celsius, 5% CO2, 95% humidity. Cells were allowed to expand until reaching 80% saturation at which point they were subcultured or harvested for assay use.
(§2) A serial dilution of test compound was dispensed into a 96 well black clear bottom plate (Corning, Corning, N.Y.). For each cell line, three thousand cells were added per well in complete growth medium. Plates were incubated for 72 hours at 37 degrees Celsius, 5% CO2, 95% humidity. At the end of the incubation period Cell Titer Blue (Promega, Madison, Wis.) was added to each well and an additional 4.5 hour incubation at 37 degrees Celsius, 5% CO2, 95% humidity was performed. Plates were then read on a BMG Fluostar Optima (BMG, Durham, N.C.) using an excitation of 544 nm and an emission of 612 nm. Data was analyzed using Prism software (Graphpad, San Diego, Calif.) to calculate IC50's.

[3] = target: T3, C-Met kinase (SEQ ID NO:10) (Homo sapiens, UniProt P08581); assay: C-Met kinase assay (pyruvate kinase/lactate dehydrogenase coupled); details: 0.5 h preincubation at 22° C., ATP 100 μM; read-out: c-Met Enzyme Assay, biochemical IC50
T3 construct: purchased Invitrogen PV3143
T3 sequence (P08581 with tags, fused parts or gaps): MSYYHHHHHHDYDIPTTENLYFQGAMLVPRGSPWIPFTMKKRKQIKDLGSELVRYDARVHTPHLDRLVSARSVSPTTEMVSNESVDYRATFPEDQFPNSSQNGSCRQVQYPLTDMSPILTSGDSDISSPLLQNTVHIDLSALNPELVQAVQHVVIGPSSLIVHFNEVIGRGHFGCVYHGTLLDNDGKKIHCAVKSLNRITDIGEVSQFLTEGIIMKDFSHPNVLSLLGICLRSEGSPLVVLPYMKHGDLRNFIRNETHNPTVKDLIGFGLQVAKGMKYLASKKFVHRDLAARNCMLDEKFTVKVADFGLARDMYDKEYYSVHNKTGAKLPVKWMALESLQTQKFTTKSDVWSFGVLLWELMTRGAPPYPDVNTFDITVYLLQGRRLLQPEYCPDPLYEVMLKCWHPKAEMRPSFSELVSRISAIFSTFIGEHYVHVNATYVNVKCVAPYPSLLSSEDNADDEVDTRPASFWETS
Experimental: C-Met Kinase (SEQ ID NO:10) Assay
Activity of C-Met kinase (SEQ ID NO:10) was determined by following the production of ADP from the kinase reaction through coupling with the pyruvate kinase/lactate dehydrogenase system (e.g., Schindler, et al. Science (2000) 289, 1938-1942). In this assay, the oxidation of NADH (thus the decrease at A340 nm) was continuously monitored spectrophometrically. The reaction mixture (100 μl) contained C-Met (c-Met residues; 956-1390, from Invitrogen, catalogue #PV3143, 6 nM), polyE4Y (1 mg/ml), MgCl2 (10 mM), pyruvate kinase (4 units), lactate dehydrogenase (0.7 units), phosphoenol pyruvate (1 mM), and NADH (0.28 mM) in 90 mM Tris buffer containing 0.25 mM DTT, 0.2% octyl-glucoside and 1% DMSO, pH 7.5. Test compounds were incubated with C-Met (SEQ ID NO:10) and other reaction reagents at 22° C. for 0.5 h before ATP (100 μM) was added to start the reaction. The absorption at 340 n=was monitored continuously for 2 hours at 30° C. on Polarstar Optima plate reader (BMG). The reaction rate was calculated using the 1.0 to 2.0 h time frame. Percent inhibition was obtained by comparison of reaction rate with that of a control (i.e. with no test compound). IC50 values were calculated from a series of percent inhibition values determined at a range of inhibitor concentrations using software routines as implemented in the GraphPad Prism software package.

Abl kinase (SEQ ID NO:1) = target: T4, Abl kinase (SEQ ID NO:1) (Homo sapiens, UniProt P00519); assay: Abl kinase assay (pyruvate kinase/lactate dehydrogenase coupled, ADP production); details: 2 h preincubation at 30° C., ATP 500 μM; read-out: Abl Enzyme Assay, biochemical IC50
T4 construct: purchased deCode Genetics
T4 sequence (P00519 with tags, fused parts or gaps): T1 sequence (P00519 with tags, fused parts or gaps T315I) with I94T
Experimental: Abl Kinase (SEQ ID NO:1) Assay
Activity of Abl kinase (SEQ ID NO:1) was determined by following the production of ADP from the kinase reaction through coupling with the pyruvate kinase/lactate dehydrogenase system (e.g., Schindler, et al. Science (2000) 289, 1938-1942). In this assay, the oxidation of NADH (thus the decrease at A340nm) was continuously monitored spectrophometrically. The reaction mixture (100 μl) contained Abl kinase (1 nM. Abl from deCode Genetics), peptide substrate (EAIYAAPFAKKK. 0.2 mM), MgCl2 (10 mM), pyruvate kinase (4 units), lactate dehydrogenase (0.7 units), phosphoenol pyruvate (1 mM), and NADH (0.28 mM) in 90 mM Tris buffer containing 0.2% octyl-glucoside and 3.5% DMSO, pH 7.5. Test compounds were incubated with Abl (SEQ ID NO:1) and other reaction reagents at 30° C. for 2 h before ATP (500 μM) was added to start the reaction. The absorption at 340 nm was monitored continuously for 2 hours at 30° C. on Polarstar Optima plate reader (BMG). The reaction rate was calculated using the 1.0 to 2.0 h time frame. Percent inhibition was obtained by comparison of reaction rate with that of a control (i.e. with no test compound). IC50 values were calculated from a series of percent inhibition values determined at a range of inhibitor concentrations using software routines as implemented in the GraphPad Prism software package.

[4] = target: T5, BaF3 cells transfected with T315I p210 BCR-Abl (Homo sapiens, UniProt P00519, T315I, cells depend on it); assay: Ba/F3 p210 T315I whole cell proliferation assay (Cell Titer Blue, 72 hours); format: cell-based; details: 72 hours incubation; read-out: Ba/F3 p210 T315I whole cell proliferation assay, antiproliferation IC50
T5 construct: fused on or other part: P11274 (Breakpoint cluster region protein)
Experimental: as §1, §2

[5] = target: B-Raf(V600E) kinase (SEQ ID NO:11) (Homo sapiens, UniProt P15056, V600E); assay: B-Raf(V600E) kinase assay (pyruvate kinase/lactate dehydrogenase coupled, MEK1 substrate); details: 1 h preincubation at 30° C., ATP 0.2 mM; read-out: B-Raf V600E Enzyme Assay, biochemical IC50
Chain of B-Raf(V600E) kinase (SEQ ID NO:11) (P15056 with tags, fused parts or gaps V600E): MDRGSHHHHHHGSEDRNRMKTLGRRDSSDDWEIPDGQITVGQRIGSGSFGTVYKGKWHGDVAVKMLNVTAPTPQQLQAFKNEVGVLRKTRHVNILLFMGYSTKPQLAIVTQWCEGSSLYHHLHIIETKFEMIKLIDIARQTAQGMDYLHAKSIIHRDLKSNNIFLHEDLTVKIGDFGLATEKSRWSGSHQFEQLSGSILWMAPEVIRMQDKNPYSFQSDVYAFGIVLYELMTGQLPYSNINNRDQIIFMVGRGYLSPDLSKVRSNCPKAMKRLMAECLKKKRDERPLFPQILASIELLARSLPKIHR
Experimental: B-Raf(V600E) Kinase Assay
The activity of B-Raf(V600E) kinase (SEQ ID NO:11) was determined by following the formation of ADP from the reaction through coupling with the pyruvate kinase/lactate dehydrogenase system (e.g., Schindler, et al. Science (2000) 289, 1938-1942). In this assay, the oxidation of NADH (thus the decrease at A340nm) was continuously monitored spectrophotometrically. The reaction mixture (100 μl) contained B-Raf(V600E) kinase (0.34 nM nominal concentration, SEQ ID NO:11), unphosphorylated, full-length MEK1 (42 nM, SEQ ID NO:12), MgCl2 (13 mM), pyruvate kinase (3.5 units), lactate dehydrogenase (5.5 units), phosphoenolpyruvate (1 mM), and NADH (0.28 mM), in 60 mM Tris buffer, containing 0.13% octyl-glucoside and 3.5% DMSO concentration at pH 7.5. The test compounds were incubated with the reaction mixture at 30° C. for 1 h. The reaction was initiated by adding ATP (0.2 mM, final concentration). The absorption at 340 nm was continuously monitored for 3 h at 30° C. on a Polarstar Optima plate reader (BMG). The reaction rate was calculated using the 0.5 h to 1.5 h time frame. Percent inhibition was obtained by comparison of reaction rate with that of a control (i.e. with no test compound). IC50 values were calculated from a series of percent inhibition values determined at a range of inhibitor concentrations using software routines as implemented in the GraphPad Prism software package.

Compound | IC50 [1] [nM] | GI50 [2] [nM] | IC50 [3] [nM] | IC50 (Abl kinase (SEQ ID NO:1)) [nM] | GI50 [4] [nM] | IC50 [5] [nM]
Cn1cc(-c2cc(Oc3ccc(NC(=O)Nc4cc(C(C)(C)C)nn4-c4ccccc4)c(F)c3)ccn2)cn1 [Example 1, 1-(3-t-butyl-1-phenyl-1H-pyrazol-5-yl)-3-(2-fluoro-4-(2-(1-methyl-1H-pyrazol-4-yl)pyridin-4-yloxy)phenyl)urea] | < 100 | < 100 | < 100 | < 100 | < 100 | –
CC(C)n1ncc(NC(=O)Nc2ccc(Oc3ccnc(-c4cnn(C)c4)c3)cc2F)c1-c1ccccc1 [Example 20, 1-(2-fluoro-4-(2-(1-methyl-1H-pyrazol-4-yl)pyridin-4-yloxy)phenyl)-3-(1-isopropyl-5-phenyl-1H-pyrazol-4-yl)urea] | – | < 100 | – | < 100 | < 1000 | < 10000
CCn1ncc(NC(=O)Nc2ccc(Oc3ccnc(-c4cnn(C)c4)c3)cc2F)c1-c1ccccc1 [Example 22, 1-(1-ethyl-5-phenyl-1H-pyrazol-4-yl)-3-(2-fluoro-4-(2-(1-methyl-1H-pyrazol-4-yl)pyridin-4-yloxy)phenyl)urea hydrochloride] | – | – | – | < 1000 | – | < 10000
CCn1cc(NC(=O)Nc2ccc(Oc3ccnc(-c4cnn(C)c4)c3)cc2F)c(-c2ccccc2)n1 [Example 23, 1-(1-ethyl-3-phenyl-1H-pyrazol-4-yl)-3-(2-fluoro-4-(2-(1-methyl-1H-pyrazol-4-yl)pyridin-4-yloxy)phenyl)urea hydrochloride] | – | – | – | < 100 | – | < 10000

The remaining lines, values ahead:

IC50 [1] [nM] | GI50 [2] [nM] | IC50 [3] [nM] | IC50 (Abl kinase (SEQ ID NO:1)) [nM] | GI50 [4] [nM] | IC50 [5] [nM] | Compound
– | < 100 | < 1000 | < 100 | < 100 | < 1000 | CCCn1cc(-c2cc(Oc3ccc(NC(=O)Nc4cc(CC)nn4-c4cccc(C#N)c4)c(F)c3)ccn2)cn1 [Example 15, 1-(1-(3-cyanophenyl)-S-ethyl-1H-pyrazol-5-yl)-3-(2-fluoro-4-(2-(1-propyl-1H-pyrazol-4-yl)pyridin-4-yloxy)phenyl)urea]
– | < 100 | < 1000 | < 100 | < 100 | < 1000 | CCc1cc(NC(=O)Nc2ccc(Oc3ccnc(-c4cnn(CC)c4)c3)cc2F)n(-c2cccc(C#N)c2)n1 [Example 18, 1-(1-(3-cyanophenyl)-3-ethyl-1H-pyrazol-5-yl)-3-(4-(2-(1-ethyl-1H-pyrazol-4-yl)pyridin-4-yloxy)-2-fluorophenyl)urea]
